Experimental data from the supplement of paper PMC10307832.

Experiments:
Assay in all cases: relative viability (nuclei count vs DMSO), 5 days (fraction); higher = more cells survive
Linsitinib + Trametinib = compound: C[C@]1(O)C[C@@H](c2nc(-c3ccc4ccc(-c5ccccc5)nc4c3)c3c(N)nccn32)C1 [Linsitinib] + CC(=O)Nc1cccc(-n2c(=O)n(C3CC3)c(=O)c3c(Nc4ccc(I)cc4F)n(C)c(=O)c(C)c32)c1 [Trametinib] (partner 0.02 µM)
How it was run: (§1)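 After 5 days of treatment, lung cancer cells in 1536-well plates were fixed and stained in a single step (final 0.05% Triton X-100, 1% formaldehyde, 1 ug/ml Hoechst) and their nuclei counted on 4× images. Treatment had been applied by pin tool the day after seeding as one drug alone or as a fixed anchor-drug dose with five library-drug doses (not always all listed) in √10 steps. Relative viability is the nuclei count of treated wells divided by that of vehicle wells, and values are medians of duplicate plates.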

Linsitinib + AZD7762 = compound: C[C@]1(O)C[C@@H](c2nc(-c3ccc4ccc(-c5ccccc5)nc4c3)c3c(N)nccn32)C1 [Linsitinib] + NC(=O)Nc1cc(-c2cccc(F)c2)sc1C(=O)N[C@H]1CCCNC1 [AZD7762] (partner 0.2 µM)
How it was run: as §1

Linsitinib + Vorinostat = compound: C[C@]1(O)C[C@@H](c2nc(-c3ccc4ccc(-c5ccccc5)nc4c3)c3c(N)nccn32)C1 [Linsitinib] + O=C(CCCCCCC(=O)Nc1ccccc1)NO [Vorinostat] (partner 1 µM)
How it was run: as §1

Ispinesib + Tozasertib = compound: Cc1ccc(C(=O)N(CCCN)[C@@H](c2nc3cc(Cl)ccc3c(=O)n2Cc2ccccc2)C(C)C)cc1 [Ispinesib] + Cc1cc(Nc2cc(N3CCN(C)CC3)nc(Sc3ccc(NC(=O)C4CC4)cc3)n2)n[nH]1 [Tozasertib] (partner 0.1 µM)
How it was run: as §1

| Cell Line | relative viability (Linsitinib + Trametinib; first compound 0.01 µM) | relative viability (Linsitinib + Trametinib; first compound 0.03162 µM) | relative viability (Linsitinib + Trametinib; first compound 0.1 µM) | relative viability (Linsitinib + Trametinib; first compound 0.3162 µM) | relative viability (Linsitinib + Trametinib; first compound 1 µM) | relative viability (Linsitinib + AZD7762; first compound 0.01 µM) | relative viability (Linsitinib + AZD7762; first compound 0.03162 µM) | relative viability (Linsitinib + AZD7762; first compound 0.1 µM) | relative viability (Linsitinib + AZD7762; first compound 0.3162 µM) | relative viability (Linsitinib + AZD7762; first compound 1 µM) | relative viability (Linsitinib + Vorinostat; first compound 0.01 µM) | relative viability (Linsitinib + Vorinostat; first compound 0.03162 µM) | relative viability (Linsitinib + Vorinostat; first compound 0.1 µM) | relative viability (Linsitinib + Vorinostat; first compound 0.3162 µM) | relative viability (Linsitinib + Vorinostat; first compound 1 µM) | relative viability (Ispinesib + Tozasertib; first compound 0.001 µM) | relative viability (Ispinesib + Tozasertib; first compound 0.003162 µM) | relative viability (Ispinesib + Tozasertib; first compound 0.01 µM) | relative viability (Ispinesib + Tozasertib; first compound 0.03162 µM) | relative viability (Ispinesib + Tozasertib; first compound 0.1 µM) |
| --- | --- | --- | --- | --- | --- | --- | --- | --- | --- | --- | --- | --- | --- | --- | --- | --- | --- | --- | --- | --- |
| NCI-H2085 | 0.557 | 0.644 | 0.503 | 0.449 | 0.514 | 0.916 | 0.837 | 1.04 | 0.896 | 0.939 | 0.778 | 0.707 | 0.791 | 0.8 | 0.681 | 0.881 | 0.855 | 1 | 0.76 | 0.651 |
| NCI-H2087 | 0.197 | 0.204 | 0.183 | 0.15 | 0.191 | 1.15 | 1.23 | 1.38 | 1.34 | 1.13 | 0.68 | 0.74 | 0.702 | 0.693 | 0.795 | 0.301 | 0.246 | 0.29 | 0.261 | 0.155 |
| NCI-H2126 | 0.568 | 0.552 | 0.533 | 0.509 | 0.473 | 0.972 | 0.997 | 1.05 | 0.871 | 0.887 | 0.855 | 0.8 | 0.767 | 0.451 | 0.514 | 0.813 | 0.913 | 0.944 | 0.644 | 0.449 |
| NCI-H2170 | 0.948 | 0.906 | 0.849 | – | 0.89 | 0.918 | 0.959 | 0.768 | – | 0.68 | 0.771 | 0.771 | 0.753 | – | 0.696 | 0.741 | 0.689 | 0.848 | 0.556 | 0.41 |
| NCI-H2342 | 0.788 | 0.886 | 0.791 | 0.777 | 0.729 | 0.405 | 0.544 | 0.526 | 0.454 | 0.414 | 0.689 | 0.707 | 0.764 | 0.727 | 0.756 | 0.492 | 0.502 | 0.544 | 0.554 | 0.43 |
| NCI-H2347 | 0.277 | 0.274 | 0.303 | 0.287 | 0.418 | 0.645 | 0.736 | 0.792 | 0.747 | 0.669 | 0.677 | 0.583 | 0.591 | 0.444 | 0.57 | 0.529 | 0.545 | 0.65 | 0.55 | 0.52 |
| NCI-H2405 | 0.66 | 0.6 | 0.607 | 0.708 | 0.401 | 0.74 | 0.662 | 0.711 | 0.859 | 0.474 | 1.04 | 0.907 | 0.973 | 0.698 | 0.487 | 0.798 | 0.7 | 0.858 | 0.771 | 0.965 |
| NCI-H3122 | 0.259 | 0.213 | 0.253 | – | 0.232 | 0.985 | 0.992 | 0.968 | – | 0.765 | 0.966 | 0.921 | 0.98 | – | 0.702 | 0.408 | 0.402 | 0.462 | 0.212 | 0.17 |
